According to patent publication US6242235A, “Polymerase stabilization by polyethoxylated amine surfactants” (priority 1999, dated 2001):

Columns and labels:
Taq polymerase [1] = biological target: T1, Taq polymerase (Thermus aquaticus, UniProt P19821); assay: Half-life of Taq polymerase activity at 95° C. in surfactant solutions (3H-TTP incorporation); type: biochemical; settings: incubated at 95° C.; for estimated half-life of Taq polymerase: Example 2: 0.1% surfactant, control without surfactant less than 5 min; for Taq polymerase half life: Example 7: 0.005% surfactant, 2.5 U/100 μl, estimated graphically
T1 sequence (P19821 whole entry): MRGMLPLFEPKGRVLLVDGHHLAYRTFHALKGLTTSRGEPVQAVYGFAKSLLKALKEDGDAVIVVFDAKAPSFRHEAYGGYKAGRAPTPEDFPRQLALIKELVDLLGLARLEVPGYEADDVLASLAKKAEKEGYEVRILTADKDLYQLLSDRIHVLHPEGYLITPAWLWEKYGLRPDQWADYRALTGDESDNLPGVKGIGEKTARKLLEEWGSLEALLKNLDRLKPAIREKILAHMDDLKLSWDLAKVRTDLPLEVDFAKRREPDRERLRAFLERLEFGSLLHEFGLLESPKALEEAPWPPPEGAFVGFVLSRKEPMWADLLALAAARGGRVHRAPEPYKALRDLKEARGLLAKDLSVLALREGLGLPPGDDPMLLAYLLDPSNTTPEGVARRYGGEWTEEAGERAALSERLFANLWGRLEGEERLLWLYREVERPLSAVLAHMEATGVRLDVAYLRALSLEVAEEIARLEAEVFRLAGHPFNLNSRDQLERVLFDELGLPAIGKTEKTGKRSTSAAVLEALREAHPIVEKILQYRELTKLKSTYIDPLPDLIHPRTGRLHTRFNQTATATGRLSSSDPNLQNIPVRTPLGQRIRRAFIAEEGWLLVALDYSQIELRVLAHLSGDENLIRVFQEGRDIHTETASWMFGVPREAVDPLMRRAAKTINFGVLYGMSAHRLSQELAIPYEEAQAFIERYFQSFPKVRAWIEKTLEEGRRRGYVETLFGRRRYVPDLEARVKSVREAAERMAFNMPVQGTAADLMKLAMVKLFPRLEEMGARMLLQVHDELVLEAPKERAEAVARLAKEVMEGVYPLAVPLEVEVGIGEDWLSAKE
Description: A 10× buffer was made with each of these surfactant solutions. The 10× buffer for each consisted of: 500 mM KCl, 100 mM Tris-HCl pH 9.0 (at 25° C.), 1% surfactant (made by a 1:10 dilution of the detergent solution described above into the buffer during formulation). As described in Example 1, the Taq polymerase used in these experiments was purified without exposure to any detergents. Each of these buffer solutions was used to formulate a Taq-surfactant solution as follows: […]
A control solution was made as indicated above, except that the 32 μl of 10× buffer without surfactant was used. The solutions were incubated at 95° C. and samples (10 μl) were removed and placed in a fresh tube, and kept on ice at 0, 5, 10, 30, 60, 90, and 120 min. The samples were then assayed for Taq polymerase activity.
Taq polymerase activity was determined by measuring the amount of tritiated deoxynucleotide base a sample of the enzyme could incorporate. The assay was performed as follows. Solutions of dATP, dCTP, dGTP and dTTP (Promega U120, U122, U121 and U123, respectively) were diluted to 2 mM final concentration (originally at 100 mM) using nanopure water. Tritiated nucleotide ^3 H-TTP was obtained from Amersham (TRK424, 250 μCi/250 μl). The template for incorporation was calf thymus DNA (Sigma, D-1501) dissolved in 10 mM Tris-HCl pH 7.3, 5 mM MgCl2 to a final concentration of 2.5 mg/ml. Prior to use, the DNA was treated with 1 μl of a 1:10 dilution of RQ1 DNAse (Promega M610) (dilution made using 10 mM Tris-HCl, 5 mM MgCl2) and incubated for 10 min at 37° C. followed by 30 min at 68° C. This was done to "activate" the DNA for incorporation. A 10× Taq assay buffer was made containing 500 mM Tris-HCl (pH 9.0 at 25° C.), 500 mM NaCl, and 100 mM MgCl2.
Time point samples (10 μl) were added to 40 μl of the reaction mix and then incubated at 74° C. for 10 min. After incubation, the solution was diluted with 500 μl of ice cold 10% TCA. The TCA solution was filtered through a GF/A filter. The tube was washed three times with 1 ml of 5% TCA and the wash was then filtered onto the same filter. The filter was then rinsed 3 times with 5% TCA and then rinsed with acetone. The filters were dried 10 min. with a heat lamp and then the radioactivity was counted. The percent of activity present at any time point was determined by dividing the net counts for the sample at that time point by the net counts of the 0 min sample for that enzyme solution and then multiplying by 100%. The percent activity of the solution was plotted versus time. The points were then connected by a smooth curve and the estimated half-life of the enzyme under the conditions chosen was estimated based on the point where the line crossed 50% activity.
In this example, the ability of ethoxylated amines to stabilize thermostable proteins at high temperatures was examined. Solutions of detergent-free Taq polymerase (2.5 U/100 μl of solution) containing 0.005% Tomah E-18-15, Tomah E-18-5, Tween 20, NP-40, and TRITON X-100 were produced as in Example 2. These solutions were incubated at 95° C. and samples were removed at 0, 10, 30, 60 and 120 min and analyzed as in Example 2. The half lives of the enzyme in the presence of these surfactants was estimated graphically. The solutions containing Tomah E-18-5, TRITON X-100 and NP-40 all had Taq polymerase half lives of about 8 min.

Taq polymerase [2] = biological target: T1, Taq polymerase; assay: PCR based assay for Taq polymerase stabilization by detergents (1.5 kb amplification product on agarose gel); type: biochemical; settings: 2 μl Taq polymerase (10 U/μl)
Description: This Example describes the development of a PCR based assay for polymerase stabilization by detergents (i.e., surfactants). Conditions were defined in which the polymerase was incapable of producing a detectable amplification product in the absence of detergent, but could produce detectable amplification in the presence of a stabilizing detergent, such as Tween 20.
The following reaction mixture was assembled:
pGEM 1 uc (Part # E1541) and 25 mM MgCl2 (Part # M1902) were obtained from Promega Corp, Madison Wis. The 10× Taq buffer formulation was: 500 mM KCl, 100 mM Tris-Cl (pH 9.0 at 25° C.). The 10× Taq buffer was made by dissolving KCl and Trizma in nanopure water and adjusting the pH with concentrated hydrochloric acid. Nanopure water was made by autoclaving deionized water treated by a NANOPURE water system. The 2 mM dNTP mix was made by mixing 100 mM stocks of dATP, dCTP, dGTP, and dTTP (Promega U120, U122, U121 and U123, respectively) with nanopure water to produce a solution containing a 2 mM concentration of each nucleotide. The DNA sequences of the primers used were […] (SEQ ID NO: 1) and […] (SEQ ID NO 2).
One hundred microliters of the reaction mixture were placed into a 0.2 ml tube and 50 μl placed in five additional tubes. […]
The reaction products were analyzed by agarose gel electrophoresis. […]

[3] = McCutcheon's Volume 1: Emulsifiers and Detergents North American Edition, 1996; cited from earlier work

Compound: C[C@H](CCC(=O)NCCC[N+](C)(C)CCCS(=O)(=O)[O-])[C@H]1CC[C@H]2[C@@H]3[C@H](O)C[C@@H]4C[C@H](O)CC[C@]4(C)[C@H]3C[C@H](O)[C@]12C [Chaps]
- estimated half-life of Taq polymerase (Taq polymerase [1]): approximately 5 min

Compound: C[C@H](CCC(=O)NCCC[N+](C)(C)CC(O)CS(=O)(=O)[O-])[C@H]1CC[C@H]2[C@@H]3[C@H](O)C[C@@H]4C[C@H](O)CC[C@]4(C)[C@H]3C[C@H](O)[C@]12C (some centres unmarked) [Chapso]
- estimated half-life of Taq polymerase (Taq polymerase [1]): approximately 5 min

Compound: CCCCCCCCCC[N+](C)(C)CCCS(=O)(=O)[O-] [N-decyl-n,n-dimethyl-3-ammonium-1-propanesulfonate]
- 1.5 kb DNA band (Taq polymerase [2]; Example 3, second set: 5 μl of 10% surfactant in 95 μl mix, no band without surfactant): failed to produce a visible 1.5 kb DNA fragment
- 1.5 kb DNA band (Taq polymerase [2]; Example 3: 1 μl of 10% surfactant in 99 μl mix, weaker but visible band without surfactant): band intermediate in intensity

Compound: TRITON X-100
- estimated half-life of Taq polymerase (Taq polymerase [1]): approximately 40 min
- Taq polymerase half life (Taq polymerase [1]): about 8 min
- HLB Index [3]: 13.5

Compound: ethoxylated alky phenol [NP-40]
- Taq polymerase half life (Taq polymerase [1]): about 8 min
